Measurements from patent US8609661B2, “Pyrimido-pyrrolo-quinoxalinedione inhibitors of cystic fibrosis transmembrane conductance regulator protein and uses therefor” (The Regents of the University of California, priority 2009, dated 2013).
Where two headings read alike, the source gives them in different places.

Target: T1, human wildtype CFTR (Homo sapiens, UniProt P13569)
T1 construct: expressed in transfected cells; host or cells: Fischer rat thyroid (FRT) cells
Assay: Fluorescence platereader assay of CFTR-mediated iodide influx (YFP quenching) in FRT cells
Type: cell-based
Details: for inhibition at 5 µM / inhibition at 25 µM: FRT; for IC50: apparent IC50 from concentration-inhibition data, fluorescence platereader assay
Experimental: A. Cell lines and compounds—Fischer rat thyroid (FRT) cells co-expressing human wildtype CFTR and the halide indicator YFP-H148Q/1152L were generated as described (see, e.g., Ma et al., J. Clin. Invest. 110:1651-1658 (2002)). Cells were plated in 96-well black-walled microplates (Corning Costar) at a density of 20,000 cells per well in Coon's modified F12 medium supplemented with 5% fetal calf serum, 2 mM L-glutamine, 100 U/mL penicillin, and 100 μg/ml streptomycin. Assays were performed at 48 h after plating the cells when the cells were just confluent. For some experiments, measurements were made using T84 human intestinal epithelial cells and for other experiments, measurements were obtained using primary cultures of human bronchial epithelial cells, which were obtained and grown essentially as previously described (see, e.g., 3 and 27).
B. Compound Screening—Assays were performed using an automated screening platform (Beckman) equipped with FLUOStar fluorescence platereaders (BMG Lab Technologies, Offenburg, Germany) as described (see Ma et al., supra). Each well of a 96-well plate containing FRT cells was washed 3 times in PBS (300 μL/wash), leaving 50 μL PBS. […] After 15 min, 96-well plates were transferred to a plate reader for fluorescence assay. Each well was assayed individually for CFTR-mediated iodide influx by recording fluorescence continuously (200 ms per point) for 2 s (baseline) and then for 10 s after rapid addition of 160 μL of isosmolar PBS in which 137 mM chloride was replaced by iodide. The initial rate of iodide influx was computed from fluorescence data by non-linear regression.
Collections of synthetic and natural compounds were screened according to the screening procedures described in Example 2. A cell-based fluorescence assay was used in which CFTR inhibitors were identified by reduced iodide influx in FRT cells co-expressing human CFTR and a YFP halide sensor. CFTR was maximally activated by a mixture of agonists having different activating mechanisms. Inhibition of iodide influx was observed as reduced YFP fluorescence quenching in response to rapid iodide addition to each well of 96-well plates. […]

[1] = Table 2, screening, 5 μM, read-out: % Inhibition at 5 μM
[2] = Table 2, screening, 25 μM, read-out: % Inhibition at 25 μM
[3] = read-out: % inhibition at 25/5 μM (5 μM value), Table 1, 5 μM compound
[4] = read-out: % inhibition at 25/5 μM (25 μM value), Table 1, 25 μM compound

T1 sequence (P13569 whole entry): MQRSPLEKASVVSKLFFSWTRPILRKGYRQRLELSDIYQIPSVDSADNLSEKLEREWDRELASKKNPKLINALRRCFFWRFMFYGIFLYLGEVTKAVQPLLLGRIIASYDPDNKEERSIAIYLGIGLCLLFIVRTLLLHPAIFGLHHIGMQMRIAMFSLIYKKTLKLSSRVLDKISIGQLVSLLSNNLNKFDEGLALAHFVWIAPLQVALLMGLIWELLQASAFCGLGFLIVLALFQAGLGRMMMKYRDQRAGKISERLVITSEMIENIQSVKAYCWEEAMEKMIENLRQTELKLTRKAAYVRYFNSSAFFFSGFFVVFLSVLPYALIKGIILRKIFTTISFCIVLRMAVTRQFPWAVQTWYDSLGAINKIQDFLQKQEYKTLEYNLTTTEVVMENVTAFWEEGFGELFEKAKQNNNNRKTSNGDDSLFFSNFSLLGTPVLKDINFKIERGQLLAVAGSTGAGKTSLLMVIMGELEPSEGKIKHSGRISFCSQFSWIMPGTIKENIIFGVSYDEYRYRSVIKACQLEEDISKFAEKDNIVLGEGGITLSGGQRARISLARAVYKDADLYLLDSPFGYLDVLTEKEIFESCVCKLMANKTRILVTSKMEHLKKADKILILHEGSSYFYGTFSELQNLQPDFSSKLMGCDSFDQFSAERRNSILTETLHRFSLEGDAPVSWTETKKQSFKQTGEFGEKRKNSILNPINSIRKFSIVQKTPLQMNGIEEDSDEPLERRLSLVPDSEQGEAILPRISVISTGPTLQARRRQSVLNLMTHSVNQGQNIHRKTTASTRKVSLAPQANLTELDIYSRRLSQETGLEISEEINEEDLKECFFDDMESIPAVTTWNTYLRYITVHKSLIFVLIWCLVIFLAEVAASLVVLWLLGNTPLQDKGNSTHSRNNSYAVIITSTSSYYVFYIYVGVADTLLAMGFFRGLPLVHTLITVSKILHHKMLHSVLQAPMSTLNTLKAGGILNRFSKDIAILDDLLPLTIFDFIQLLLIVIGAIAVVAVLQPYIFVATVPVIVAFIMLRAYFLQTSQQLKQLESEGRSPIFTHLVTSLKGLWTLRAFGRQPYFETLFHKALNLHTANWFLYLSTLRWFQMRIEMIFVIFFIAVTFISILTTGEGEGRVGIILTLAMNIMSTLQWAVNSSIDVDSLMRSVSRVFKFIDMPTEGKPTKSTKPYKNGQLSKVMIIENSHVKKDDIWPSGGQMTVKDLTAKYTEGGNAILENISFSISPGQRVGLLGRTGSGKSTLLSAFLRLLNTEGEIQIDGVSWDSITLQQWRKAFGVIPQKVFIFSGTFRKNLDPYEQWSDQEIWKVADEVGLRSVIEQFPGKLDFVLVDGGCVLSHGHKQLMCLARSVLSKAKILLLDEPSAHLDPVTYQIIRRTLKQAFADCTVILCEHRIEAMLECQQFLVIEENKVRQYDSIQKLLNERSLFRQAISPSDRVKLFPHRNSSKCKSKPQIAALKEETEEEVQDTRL

Row | inhibition at 5 µM [1] | inhibition at 25 µM [2] | inhibition at 5 µM [3] | inhibition at 25 µM [4] | IC50 | Structure (SMILES)
1 | 24% | 87% |  |  |  | Cc1cc2c(cc1C)-n1c(-c3ccccc3)c3c(=O)n(C)c(=O)n(C)c3c1C(c1ccco1)N2 (centres unmarked) [PPQ-107, 2,3,7,9-Tetramethyl-11-phenyl-6-(furan-2-yl)-5,6-dihydro-pyrimido[4′,5′-3,4]pyrrolo[1,2-a]quinoxaline-8,10-(7H,9H)-dione]
2 | < 10% | 87% |  |  |  | CCOc1ccccc1C1Nc2ccccc2-n2c(-c3cccc(C)c3)c3c(=O)n(C)c(=O)n(C)c3c21 (centres unmarked) [PPQ-231, 7,9-Dimethyl-11-(3-methylphenyl)-6-(2-ethoxyphenyl)-5,6-dihydro-pyrimido[4′,5′-3,4]pyrrolo[1,2-a]quinoxaline-8,10-(7H,9H)-dione]
3 | 64% | 86% | 64% | 86% | 4500 nM | Cn1c(=O)c2c(-c3ccccc3)n3c(c2n(C)c1=O)C(c1ccc(O)cc1)Nc1ccccc1-3 (centres unmarked) [PPQ-207, 7,9-Dimethyl-11-phenyl-6-(4-hydroxyphenyl)-5,6-dihydro-pyrimido[4′,5′-3,4]pyrrolo[1,2-a]quinoxaline-8,10-(7H,9H)-dione]
4 | 84% | 90% | 84% | 90% | 800 nM | Cc1ccc(C2Nc3cc(C)c(C)cc3-n3c(-c4ccccc4)c4c(=O)n(C)c(=O)n(C)c4c32)o1 (centres unmarked) [PPQ-104, 2,3,7,9-Tetramethyl-11-phenyl-6-(5-methylfuran-2-yl)-5,6-dihydro-pyrimido[4′,5′-3,4]pyrrolo[1,2-a]quinoxaline-8,10-(7H,9H)-dione]
5 | 21% | 64% |  |  |  | Cn1c(=O)c2c(-c3ccccc3)n3c(c2n(C)c1=O)C(c1ccc(F)cc1)Nc1ccccc1-3 (centres unmarked) [PPQ-249, 7,9-Dimethyl-11-phenyl-6-(4-fluorophenyl)-5,6-dihydro-pyrimido[4′,5′-3,4]pyrrolo[1,2-a]quinoxaline-8,10-(7H,9H)-dione]
6 | 10% | 78% |  |  |  | COc1cc(C2Nc3ccccc3-n3c(-c4ccccc4C)c4c(=O)n(C)c(=O)n(C)c4c32)ccc1O (centres unmarked) [PPQ-227, 7,9-Dimethyl-11-(2-methylphenyl)-6-(3-methoxy-4-hydroxyphenyl)-5,6-dihydro-pyrimido[4′,5′-3,4]pyrrolo[1,2-a]quinoxaline-8,10-(7H,9H)-dione]
7 | 15% | 74% |  |  |  | Cc1ccccc1-c1c2c(=O)n(C)c(=O)n(C)c2c2n1-c1ccccc1NC2c1cccc(O)c1 (centres unmarked) [PPQ-242, 7,9-Dimethyl-11-(2-methylphenyl)-6-(3-hydroxyphenyl)-5,6-dihydro-pyrimido[4′,5′-3,4]pyrrolo[1,2-a]quinoxaline-8,10-(7H,9H)-dione]
8 | 80% | > 95% | 80% |  | 1500 nM | Cc1cc2c(cc1C)-n1c(-c3ccccc3)c3c(=O)n(C)c(=O)n(C)c3c1C(c1ccc(O)cc1)N2 (centres unmarked) [PPQ-203, 2,3,7,9-Tetramethyl-11-phenyl-6-(4-hydroxyphenyl)-5,6-dihydro-pyrimido[4′,5′-3,4]pyrrolo[1,2-a]quinoxaline-8,10-(7H,9H)-dione]
9 | 71% | 94% | 71% | 94% | 1700 nM | Cc1cccc(-c2c3c(=O)n(C)c(=O)n(C)c3c3n2-c2ccccc2NC3c2ccc(O)cc2)c1 (centres unmarked) [PPQ-209, 7,9-Dimethyl-11-(3-methylphenyl)-6-(4-hydroxyphenyl)-5,6-dihydro-pyrimido[4′,5′-3,4]pyrrolo[1,2-a]quinoxaline-8,10-(7H,9H)-dione]
10 | 61% | 94% |  |  |  | Cc1cccc(-c2c3c(=O)n(C)c(=O)n(C)c3c3n2-c2ccccc2NC3c2cccc([N+](=O)[O-])c2)c1 (centres unmarked) [PPQ-225, 7,9-Dimethyl-11-(3-methylphenyl)-6-(3-nitrophenyl)-5,6-dihydro-pyrimido[4′,5′-3,4]pyrrolo[1,2-a]quinoxaline-8,10-(7H,9H)-dione]
11 | < 10% | 78% |  |  |  | COc1ccc(-c2c3c(=O)n(C)c(=O)n(C)c3c3n2-c2ccccc2NC3c2cccc(F)c2F)cc1 (centres unmarked) [PPQ-252, 7,9-Dimethyl-11-(4-methoxyphenyl)-6-(2,3-difluorophenyl)-5,6-dihydro-pyrimido[4′,5′-3,4]pyrrolo[1,2-a]quinoxaline-8,10-(7H,9H)-dione]
12 | < 10% | 50% |  |  |  | COc1ccc(O)c(C2Nc3ccccc3-n3c(-c4cccc(C)c4)c4c(=O)n(C)c(=O)n(C)c4c32)c1 (centres unmarked) [PPQ-246, 7,9-Dimethyl-11-(3-methylphenyl)-6-(2-hydroxy-5-methoxylphenyl)-5,6-dihydro-pyrimido[4′,5′-3,4]pyrrolo[1,2-a]quinoxaline-8,10-(7H,9H)-dione]
13 | 32% | 84% |  |  |  | Cc1ccccc1-c1c2c(=O)n(C)c(=O)n(C)c2c2n1-c1ccccc1NC2c1ccc(O)cc1 (centres unmarked) [PPQ-222, 7,9-Dimethyl-11-(2-methylphenyl)-6-(4-hydroxyphenyl)-5,6-dihydro-pyrimido[4′,5′-3,4]pyrrolo[1,2-a]quinoxaline-8,10-(7H,9H)-dione]
14 | < 10% | > 95% |  |  |  | Cc1ccc(-c2c3c(=O)n(C)c(=O)n(C)c3c3n2-c2ccccc2NC3c2ccc(C)cc2O)cc1 (centres unmarked) [PPQ-220, 7,9-Dimethyl-11-(4-methylphenyl)-6-(2-hydroxy-4-methylphenyl)-5,6-dihydro-pyrimido[4′,5′-3,4]pyrrolo[1,2-a]quinoxaline-8,10-(7H,9H)-dione]
15 | 49% | 64% |  |  |  | Cc1cccc(-c2c3c(=O)n(C)c(=O)n(C)c3c3n2-c2ccccc2NC3c2ccccc2)c1 (centres unmarked) [PPQ-250, 7,9-Dimethyl-11-(3-methylphenyl)-6-phenyl-5,6-dihydro-pyrimido[4′,5′-3,4]pyrrolo[1,2-a]quinoxaline-8,10-(7H,9H)-dione]
16 | 22% | 57% |  |  |  | Cc1cccc(-c2c3c(=O)n(C)c(=O)n(C)c3c3n2-c2ccccc2NC3c2ccc(F)cc2)c1 (centres unmarked) [PPQ-238, 7,9-Dimethyl-11-(3-methylphenyl)-6-(4-fluorophenyl)-5,6-dihydro-pyrimido[4′,5′-3,4]pyrrolo[1,2-a]quinoxaline-8,10-(7H,9H)-dione]
17 | 11% | 54% |  |  |  | Cn1c(=O)c2c(-c3ccccc3)n3c(c2n(C)c1=O)C(c1ccco1)Nc1ccccc1-3 (centres unmarked) [PPQ-112, 7,9-Dimethyl-11-phenyl-6-(5-furan-2-yl)-5,6-dihydro-pyrimido[4′,5′-3,4]pyrrolo[1,2-a]quinoxaline-8,10-(7H,9H)-dione]
18 | 28% | 82% |  |  |  | Cn1c(=O)c2c(-c3ccccc3F)n3c(c2n(C)c1=O)C(c1ccc(F)cc1)Nc1ccccc1-3 (centres unmarked) [PPQ-233, 7,9-Dimethyl-11-(2-fluorophenyl)-6-(4-fluorophenyl)-5,6-dihydro-pyrimido[4′,5′-3,4]pyrrolo[1,2-a]quinoxaline-8,10-(7H,9H)-dione]

Further lines, the compound ahead of its results:

Row | Structure (SMILES) | inhibition at 5 µM [1] | inhibition at 25 µM [2] | inhibition at 5 µM [3] | inhibition at 25 µM [4] | IC50
19 | COc1ccc(-c2c3c(=O)n(C)c(=O)n(C)c3c3n2-c2ccccc2NC3c2cccc(F)c2)cc1 (centres unmarked) | < 10% | 37% |  |  | 
20 | COc1cccc(C2Nc3ccccc3-n3c(-c4ccc(Cl)cc4)c4c(=O)n(C)c(=O)n(C)c4c32)c1 (centres unmarked) | < 10% | 41% |  |  | 
21 | COc1ccc(-c2c3c(=O)n(C)c(=O)n(C)c3c3n2-c2ccccc2NC3c2cccc(OC)c2)cc1 (centres unmarked) | 13% | 47% |  |  | 
22 | Cn1c(=O)c2c(-c3ccccc3)n3c(c2n(C)c1=O)C(c1ccc(O)cc1O)Nc1ccccc1-3 (centres unmarked) | < 10% | 35% |  |  | 
23 | Cc1ccccc1C1Nc2ccccc2-n2c(-c3ccccc3)c3c(=O)n(C)c(=O)n(C)c3c21 (centres unmarked) | 13% | 41% |  |  | 
24 | COc1ccc(-c2c3c(=O)n(C)c(=O)n(C)c3c3n2-c2ccccc2NC3c2ccccc2Cl)cc1 (centres unmarked) | < 10% | 47% |  |  | 
25 | Cc1ccccc1-c1c2c(=O)n(C)c(=O)n(C)c2c2n1-c1ccccc1NC2c1ccc(O)c(O)c1 (centres unmarked) | < 10% | 38% |  |  | 
26 | CCOc1ccc(C2Nc3ccccc3-n3c(-c4ccccc4C)c4c(=O)n(C)c(=O)n(C)c4c32)cc1 (centres unmarked) | < 10% | 32% |  |  | 
27 | COc1ccc(-c2c3c(=O)n(C)c(=O)n(C)c3c3n2-c2ccccc2NC3c2cccc(C)c2)cc1 (centres unmarked) | < 10% | 35% |  |  | 
